Test results as given in paper PMC3477139 (PLoS ONE, 2012).

Experiments:
β2-adrenoceptors = experiment: cAMP accumulation via β2-adrenoceptors in HEK-GLP-1R cells; assay type: cell-based
Protocol: Ligands or vehicle control (40 µl) were added and reactions terminated after the appropriate times by replacement of the aqueous phase with ice-cold 0.5 M trichloroacetic acid. […] Reactions were terminated as above.
(§1) The cAMP was extracted from either intact cell or membrane preparations using a method identical to that for extraction of Ins(1,4,5)P3 [22]. Levels of cAMP were then determined by a competitive radioreceptor assay using binding protein purified from bovine adrenal glands and related to cellular protein assessed by Bradford assay.
All data are mean±/+s.e.m., n = 3–4, *** P<0.001 and ** P<0.01 by Bonferroni's multiple range test. For clarity only differences between ‘numerical’ and ‘co-addition’ conditions are shown.

human GLP-1R [1] = target: T1, human GLP-1R (Homo sapiens, UniProt P43220); experiment: cAMP generation in intact HEK-GLP-1R cells; assay type: cell-based
T1 construct: expressed in transfected cells; vector pcDNA5/FRT
T1 sequence (P43220 24-463): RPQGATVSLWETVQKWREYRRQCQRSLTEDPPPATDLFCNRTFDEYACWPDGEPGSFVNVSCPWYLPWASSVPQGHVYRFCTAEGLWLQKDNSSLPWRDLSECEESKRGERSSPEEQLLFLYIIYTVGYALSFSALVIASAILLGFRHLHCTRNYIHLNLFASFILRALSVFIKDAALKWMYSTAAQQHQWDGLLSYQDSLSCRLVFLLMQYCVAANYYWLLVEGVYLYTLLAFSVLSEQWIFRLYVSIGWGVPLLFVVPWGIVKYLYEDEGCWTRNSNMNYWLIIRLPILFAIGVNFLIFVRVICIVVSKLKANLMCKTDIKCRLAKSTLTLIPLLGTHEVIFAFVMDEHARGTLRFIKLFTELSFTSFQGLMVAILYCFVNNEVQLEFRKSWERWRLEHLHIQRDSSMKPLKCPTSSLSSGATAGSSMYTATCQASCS
Protocol: (§2) HEK-Flp-In cells with stable recombinant expression of the human GLP-1R (HEK-GLP-1R) were cultured in DMEM with high glucose supplemented with 10% FBS, 100 µg/ml streptomycin and 100 units/ml penicillin sulphate. These cells were originally generated by transfection of HEK-Flp-In cells (Invitrogen: Paisley, U.K.) with pcDNA5/FRT containing the human GLP-1R. […] INS-1E cells were kindly provided by Prof. C.B. Wollheim of the University of Geneva, Switzerland [19]. These cells were used between passages 65–90 and cultured in RPMI media containing 11.1 mM glucose, 5% heat-inactivated FBS, 100 µg/ml streptomycin, 100 units/ml penicillin sulphate, 100 units/ml neomycin, 50 µM β-mercaptoethanol, 10 mM HEPES and 1 mM sodium pyruvate. All cells were cultured at 37°C in a 5% CO2 humidified atmosphere and passaged at confluence.
(§3) Confluent monolayers of HEK-GLP-1R cells cultured in 24-well plates pre-coated with poly-D-lysine (0.1% w/v) where washed twice with 0.5 ml Krebs-HEPES buffer (KHB, composition: 10 mM HEPES; 4.2 mM NaHCO3; 11.7 mM D-glucose; 1.18 mM MgSO4·7H2O; 1.18 mM KH2PO4; 4.69 mM KCl; 118 mM NaCl; 1.3 mM CaCl2·2H2O; pH 7.4) containing 0.1% (w/v) BSA (KHB-BSA) before incubation (10 min, 37°C) in 360 µl KHB-BSA containing 500 µM isobutylmethylxanthine (IBMX). Ligands or vehicle control (40 µl) were added and reactions terminated after the appropriate times by replacement of the aqueous phase with ice-cold 0.5 M trichloroacetic acid. INS-1E cells grown to confluence in 24-well plates were treated similarly with the exception that after washing in KHB, cells were incubated in 200 µl KHB-BSA containing 1.4 mM glucose without IBMX for 2 h followed by challenge with ligands (or vehicle) for 15 min at 37°C in 400 µl KHB-BSA, in the presence of 10 mM glucose and 500 µM IBMX. Reactions were terminated as above.
as §1
(§4) Concentration-response curves were fitted using GraphPad Prism (GraphPad Software Inc., CA) using a standard four parameter logistic equation. All data are representative of n≥3 or are presented as mean+/±s.e.m., where n = 3 unless otherwise stated. Statistical analysis was by oneway ANOVA and where P<0.05, followed by Bonferroni's or Dunnett's multiple range test as indicated. Alternatively analysis was performed by Student's t-test. Where potency estimates are given these are pEC50 values (−log10 of the molar concentration giving 50% of the maximal response).

[2] = target: T2, GLP-1R (native, rat insulinoma cell line INS-1E) (Rattus norvegicus, UniProt P32301); experiment: cAMP generation in INS-1E cells; assay type: cell-based
T2 construct: the rat insulinoma cell line, INS-1E, with native expression of the GLP-1R; endogenous in cells; host or cells: INS-1E rat insulinoma cells (gift of Prof. C.B. Wollheim)
T2 sequence (P32301 22-463): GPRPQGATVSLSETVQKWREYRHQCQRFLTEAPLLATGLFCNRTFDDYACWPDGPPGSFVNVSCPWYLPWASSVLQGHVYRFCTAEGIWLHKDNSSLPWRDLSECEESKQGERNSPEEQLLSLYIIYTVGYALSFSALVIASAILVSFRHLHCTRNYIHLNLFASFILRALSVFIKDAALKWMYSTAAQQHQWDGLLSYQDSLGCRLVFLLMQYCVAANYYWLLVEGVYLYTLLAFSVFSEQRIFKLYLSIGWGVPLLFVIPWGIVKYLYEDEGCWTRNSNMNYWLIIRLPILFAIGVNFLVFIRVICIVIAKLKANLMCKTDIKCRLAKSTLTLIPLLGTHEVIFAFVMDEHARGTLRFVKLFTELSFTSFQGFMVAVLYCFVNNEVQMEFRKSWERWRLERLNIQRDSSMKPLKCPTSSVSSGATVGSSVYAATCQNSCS
Protocol: as §2, §3, §1, §4

GLP-1R = details: ref [7]; cited from earlier work
human GLP-1R [3] = target: T1, human GLP-1R; experiment: cAMP generation by membranes from HEK-GLP-1R cells; assay type: biochemical; details: 5 min, 30°C, IBMX
Protocol: as §1, §4

human GLP-1R [4] = target: T1, human GLP-1R; details: earlier studies; interpretation may be compromised by adverse effects of compound 2; ref [7]; cited from earlier work
Text: Given its physiological roles, the GLP-1R is targeted for treatment of type 2 diabetes. […] Such proteolysis is thought to remove biological activity.

time of peak cAMP response (human GLP-1R [1]; 1 µM compound 2, IBMX): 30 min
maximal response (Emax), cAMP (human GLP-1R [1]; no pretreatment (buffer 10 min), 15 min challenge, IBMX, pH 7.4, 37°C, mean±s.e.m., n = 3): 1908±91 pmol/mg protein
pEC50, cAMP (human GLP-1R [1]; no pretreatment (buffer 10 min), 15 min challenge, IBMX, compound 2: rising phase of bell-shaped curve, mean±s.e.m., n = 3): 5.94±0.04
Emax as % of the GLP-1 7–36 amide response, cAMP (human GLP-1R [1]; no pretreatment, 15 min challenge, IBMX): 72%
pEC50, cAMP, after preincubation with GLP-1 9–36 amide (human GLP-1R [1]; preincubated 10 min with 1 µM GLP-1 9–36 amide, 15 min challenge, IBMX, compound 2: rising phase, mean±s.e.m., n = 3): 6.55±0.07
cAMP elevation (INS-1E) ([2]; 3 µM compound 2 alone, 15 min): 40±8 pmol/mg protein
cAMP response in INS-1E (in words) ([2]; 15 min, 10 mM glucose, IBMX): elevated cAMP with low-potency
Emax as % of that evoked by GLP-1 7–36 amide, cAMP (INS-1E) ([2]; compound 2 alone, concentrations greater than 10 µM not tested): 34%
cAMP level (membranes) (human GLP-1R [3]; compound 2 alone, 3 µM, mean±s.e.m., n = 3): 2623±269 pmol/mg protein
SMILES: CC(C)(C)Nc1nc2cc(Cl)c(Cl)cc2nc1S(C)(=O)=O [compound 2, 6,7-dichloro-2-methylsulfonyl-3-N-tert-butylaminoquinoxaline]
effect on cAMP generation by the β-adrenoceptor (β2-adrenoceptors; Figure 3D): inability of compound 2 to influence cAMP generation
cAMP accumulation on co-stimulation with isoproterenol and compound 2 versus numerical sum (β2-adrenoceptors; isoproterenol (100 µM) + compound 2 (1 µM), IBMX, 5% DMSO): only equivalent to the numerical addition of responses to the two ligands when used alone
cAMP response over time (in words) (human GLP-1R [1]; 1 µM, over 60 min, IBMX, 5% DMSO, n = 3): evoked a more robust increase, which peaked at 30 min and then declined
cAMP response (in words) (human GLP-1R [1]; concentration-response, 15 min, IBMX): at >3 µM caused progressively lower cAMP responses, resulting in a bell-shaped concentration-response curve
effect on GLP-1 7–36 amide-mediated internalization of the GLP-1R (GLP-1R): can inhibit GLP-1 7–36 amide-mediated internalization of the GLP-1R
cAMP response in membranes (in words) (human GLP-1R [3]): enhanced the ability of GLP-1 9–36 amide to increase cAMP
effect on GLP-1 7–36 amide potency (cAMP) (human GLP-1R [4]): actually reduced GLP-1 7–36 amide potency
